Data as given in patent US20250257357A1, “TREATMENT OF H3.3-MUTANT BRAIN CANCER WITH PNKP INHIBITORS” (UNIVERSITE PARIS CITE, priority 2022, published 2025).

Test system: Hela cells
Assay: RAD51 and 53BP1 repair foci by immunofluorescence in Hela cells with EZH2 inhibition
Type: cell-based, human
Settings: 72 h, 1 μM, damaged with camptothecin (3 h, 0.1 μM), FIG. 2B
Protocol: Camptothecin (CPT, Sigma-Aldrich) was used at 0.1 μM for 3 h, or at 1 μM for 1 or 3 h for iPOND in human cells, and at 5 or 10 μM in yeast cells; hydroxyurea (HU, Sigma-Aldrich) at 2 mM for 3 h; mitomycin C (MMC, Sigma-Aldrich) at 200 ng/ml and 25 ng/ml for 24 h for repair foci analyses and metaphase spreads, respectively; bleomycin (Bleo, Sigma-Aldrich) at 20 µg/mL for 3 h. An overnight treatment with 2 mM Thymidine followed by 3 h release in fresh medium was used to enrich cells in S phase for iPOND experiments (70-75% of cells were in S phase as evaluated by FACS). The EZH2 inhibitor GSK126 (EZH2i, Selleckchem) was used at 1 μM for 72 h.
Cells grown on glass coverslips (VWR) were either fixed directly with 2% paraformaldehyde (PFA) and permeabilized with 0.2% Triton X-100 in PBS or pre-extracted before fixation with 0.5% Triton X-100 in CSK buffer (Cytoskeletal buffer: 10 mM PIPES pH 7.0, 100 mM NaCl, 300 mM sucrose, 3 mM MgCl2) to remove soluble proteins (not bound to chromatin) and then fixed with 2% PFA. […] Images were mounted with Adobe Photoshop applying the same treatment of fluorescence levels to all images from the same experiment. […] The position of the LacO array was determined based on mCherry-LacR signal. DNA repair and PLA foci were identified and counted by using the find maxima function (Fiji software), on maximum intensity z-projections in the case of PLA foci. […]

CC[C@H](C)n1cc(C)c2c(C(=O)NCc3c(C)cc(C)[nH]c3=O)cc(-c3ccc(N4CCNCC4)nc3)cc21 [EZH2i, GSK126]
RAD51 and 53BP1 foci (DNA repair defect): did not recapitulate the DNA repair defect
